Assay results: patent publication US7358359B2, “Antibacterial agents” (University of Washington, priority 2003, dated 2008)
Read-outs that look alike come from different tables or passages of the source.

Key:
P. aeruginosa 27853 = assay: MIC broth microdilution, standard panel: P. aeruginosa 27853; format: cell-based; settings: Pseudomonas aeruginosa, standard panel of organisms
Protocol: (§1) Bacterial isolates were cultivated from −70° C. frozen stocks by two consecutive overnight passages at 35° C. in ambient air on 5% blood agar (Remel, Lenexa, Kans.). Clinical isolates tested were from a collection composed of isolates collected during clinical trials and recent clinical isolates obtained from various geographically diverse hospitals in the US. Quality control and primary panel strains were from the American Type Culture Collection (ATCC; Rockville, Md.), with the exception of P. aeruginosa PAO200, a strain with a deletion of the mexABoprM genes that was received from Dr. H. Schweizer. […] Strain Z61 (ATCC 35151) is also hypersusceptible to antibacterials. It is thought that the hypersusceptibility of this strain is the result of increased permeability of its outer membrane (Angus B L et al, Antimicrobial Agents and Chemotherapy 1982 21,299-309: Outer membrane permeability in Pseudomonas aeruginosa: Comparison of a wild-type with an antibacterial-supersusceptible mutant).
(§2) Minimum Inhibitory Concentrations (MICs) were determined by the broth microdilution method in accordance with the National Committee for Clinical Laboratory Standards (NCCLS) guidelines. In brief, organism suspensions were are adjusted to a 0.5 McFarland standard to yield a final inoculum between 3×10^5 and 7×10^5 colony-forming units (CFU)/mL. Drug dilutions and inocula were made in sterile, cation adjusted Mueller-Hinton Broth (Remel). An inoculum volume of 100 μl was added to wells containing 100 μl of broth with 2-fold serial dilutions of drug. All inoculated microdilution trays were incubated in ambient air at 35° C. for 18-24 hours. Following incubation, the lowest concentration of the drug that prevented visible growth was recorded as the MIC. Performance of the assay was monitored by the use of laboratory quality-control strains against tobramycin, that has a defined MIC spectrum, in accordance with NCCLS guidelines.

Alcaligenes xylosoxidans = assay: MIC vs non-fermenting organisms: Alcaligenes xylosoxidans; format: cell-based; settings: Achromobacter xylosoxidans; Alcal. xyl; MIC key class
Protocol: (§3) Bacterial isolates were cultivated from −70° C. frozen stocks by two consecutive overnight passages at 35° C. in ambient air on 5% blood agar (Remel, Lenexa, Kans.). Clinical isolates tested were from a collection composed of isolates collected during clinical trials and recent clinical isolates obtained from various geographically diverse hospitals in the US. Quality control and primary panel strains were from the American Type Culture Collection (ATCC; Rockville, Md.), with the exception of P. aeruginosa PAO200, a strain with a deletion of the mexABoprM genes that was received from Dr. H. Schweizer.
as §2, with “MIC.” for “MIC. Performance of the assay was monitored by the use of laboratory quality-control strains against tobramycin, that has a defined MIC spectrum, in accordance with NCCLS guidelines.”

[1] = tested on: Pseudomonas aeruginosa cystic fibrosis isolate 3317; assay: MIC vs cystic fibrosis isolate of P. aeruginosa 3317 (resistant to aztreonam); format: cell-based; settings: strain 3317, Aztr. R, LpxC inhibitors, MIC key class
Protocol: as §3
as §2, with “MIC.” for “MIC. Performance of the assay was monitored by the use of laboratory quality-control strains against tobramycin, that has a defined MIC spectrum, in accordance with NCCLS guidelines.”

Serratia marcescens = assay: MIC vs enteric organisms: Serratia marcescens; format: cell-based; settings: S. marc., MIC key class
Protocol: as §3
as §2, with “MIC.” for “MIC. Performance of the assay was monitored by the use of laboratory quality-control strains against tobramycin, that has a defined MIC spectrum, in accordance with NCCLS guidelines.”

[2] = tested on: Acinetobacter calcoaceticus; assay: MIC vs non-fermenting organisms: Acinetobacter calcoaceticus; format: cell-based; settings: Acinet. calc., MIC key class
Protocol: as §3
as §2, with “MIC.” for “MIC. Performance of the assay was monitored by the use of laboratory quality-control strains against tobramycin, that has a defined MIC spectrum, in accordance with NCCLS guidelines.”

[3] = tested on: Pseudomonas aeruginosa cystic fibrosis isolate 3224; assay: MIC vs cystic fibrosis isolate of P. aeruginosa 3224; format: cell-based; settings: strain 3224, Tobra R, LpxC inhibitors, MIC key class
Protocol: as §3
as §2, with “MIC.” for “MIC. Performance of the assay was monitored by the use of laboratory quality-control strains against tobramycin, that has a defined MIC spectrum, in accordance with NCCLS guidelines.”

[4] = tested on: Pseudomonas aeruginosa cystic fibrosis isolate 2196; assay: MIC vs cystic fibrosis isolate of P. aeruginosa 2196 (resistant to ciprofloxacin); format: cell-based; settings: strain 2196, Cipro R, LpxC inhibitors, MIC key class
Protocol: as §3
as §2, with “MIC.” for “MIC. Performance of the assay was monitored by the use of laboratory quality-control strains against tobramycin, that has a defined MIC spectrum, in accordance with NCCLS guidelines.”

Klebsiella oxytoca = assay: MIC vs enteric organisms: Klebsiella oxytoca; format: cell-based; settings: K. oxy., MIC key class
Protocol: as §3
as §2, with “MIC.” for “MIC. Performance of the assay was monitored by the use of laboratory quality-control strains against tobramycin, that has a defined MIC spectrum, in accordance with NCCLS guidelines.”

Klebsiella pneumoniae = assay: MIC vs enteric organisms: Klebsiella pneumoniae; format: cell-based; settings: K. pneu., MIC key class
Protocol: as §3
as §2, with “MIC.” for “MIC. Performance of the assay was monitored by the use of laboratory quality-control strains against tobramycin, that has a defined MIC spectrum, in accordance with NCCLS guidelines.”

[5] = tested on: Pseudomonas aeruginosa cystic fibrosis isolate 3198; assay: MIC vs cystic fibrosis isolate of P. aeruginosa 3198 (sensitive to most antibacterials); format: cell-based; settings: strain 3198, Sensitive, LpxC inhibitors, MIC key class
Protocol: as §3
as §2, with “MIC.” for “MIC. Performance of the assay was monitored by the use of laboratory quality-control strains against tobramycin, that has a defined MIC spectrum, in accordance with NCCLS guidelines.”

[6] = tested on: Stenotrophomonas maltophilia; assay: MIC vs non-fermenting organisms: Stenotrophomonas maltophilia; format: cell-based; settings: Stenotrophomonas maltophilia, S. malt.; MIC key class; read-out: MIC
Protocol: as §3
as §2, with “MIC.” for “MIC. Performance of the assay was monitored by the use of laboratory quality-control strains against tobramycin, that has a defined MIC spectrum, in accordance with NCCLS guidelines.”

Enterobacter aerogenes = assay: MIC vs enteric organisms: Enterobacter aerogenes; format: cell-based; settings: Klebsiella aerogenes; E. aer.; MIC key class
Protocol: as §3
as §2, with “MIC.” for “MIC. Performance of the assay was monitored by the use of laboratory quality-control strains against tobramycin, that has a defined MIC spectrum, in accordance with NCCLS guidelines.”

[7] = tested on: P. aeruginosa PAO200 mexAB; assay: MIC broth microdilution, standard panel: P. aeruginosa PAO200 mexAB; format: cell-based; settings: Pseudomonas aeruginosa, PAO200MEXAB, read-out: MIC P. aeruginosa PAO200 mexAB
Protocol: as §1, §2

[8] = tested on: Pseudomonas aeruginosa cystic fibrosis isolate 1145; assay: microbe, parasite or virus in culture; format: cell-based; settings: strain 1145, MDR, LpxC inhibitors, MIC key class, read-out: MIC
Protocol: as §3
as §2, with “MIC.” for “MIC. Performance of the assay was monitored by the use of laboratory quality-control strains against tobramycin, that has a defined MIC spectrum, in accordance with NCCLS guidelines.”

[9] = tested on: Pseudomonas aeruginosa cystic fibrosis isolate 3206; assay: microbe, parasite or virus in culture; format: cell-based; settings: strain 3206, MDR, LpxC inhibitors, MIC key class, read-out: MIC
Protocol: as §3
as §2, with “MIC.” for “MIC. Performance of the assay was monitored by the use of laboratory quality-control strains against tobramycin, that has a defined MIC spectrum, in accordance with NCCLS guidelines.”

[10] = tested on: non-CF clinical isolates of P. aeruginosa; assay: MIC vs non-CF clinical isolates of P. aeruginosa; format: cell-based; settings: Pseudomonas aeruginosa, MIC key class
Protocol: as §1, §2

[11] = tested on: Pseudomonas aeruginosa cystic fibrosis isolate 3236; assay: MIC vs cystic fibrosis isolate of P. aeruginosa 3236 (sensitive to most antibacterials); format: cell-based; settings: strain 3236, Sensitive, LpxC inhibitors, MIC key class
Protocol: as §3
as §2, with “MIC.” for “MIC. Performance of the assay was monitored by the use of laboratory quality-control strains against tobramycin, that has a defined MIC spectrum, in accordance with NCCLS guidelines.”

Proteus mirabilis = assay: MIC vs enteric organisms: Proteus mirabilis; format: cell-based; settings: P. mir., MIC key class
Protocol: as §3
as §2, with “MIC.” for “MIC. Performance of the assay was monitored by the use of laboratory quality-control strains against tobramycin, that has a defined MIC spectrum, in accordance with NCCLS guidelines.”

Enterobacter cloacae = assay: MIC vs enteric organisms: Enterobacter cloacae; format: cell-based; settings: E. clo., MIC key class
Protocol: as §3
as §2, with “MIC.” for “MIC. Performance of the assay was monitored by the use of laboratory quality-control strains against tobramycin, that has a defined MIC spectrum, in accordance with NCCLS guidelines.”

S. aureus 29213 = assay: MIC broth microdilution, standard panel: S. aureus 29213; format: cell-based; settings: Staphylococcus aureus, standard panel of organisms
Protocol: as §1, §2

E. coli 25922 = assay: MIC broth microdilution, standard panel: E. coli 25922; format: cell-based; settings: Escherichia coli, standard panel of organisms
Protocol: as §1, §2

Escherichia coli = assay: MIC vs enteric organisms: Escherichia coli clinical isolates; format: cell-based; settings: Escherichia coli, MIC key class, read-out: MIC
Protocol: as §3
as §2, with “MIC.” for “MIC. Performance of the assay was monitored by the use of laboratory quality-control strains against tobramycin, that has a defined MIC spectrum, in accordance with NCCLS guidelines.”

[12] = tested on: Pseudomonas aeruginosa cystic fibrosis isolate 3232; assay: MIC vs cystic fibrosis isolate of P. aeruginosa 3232 (Ceftaz. R); format: cell-based; settings: strain 3232, Ceftaz. R, LpxC inhibitors, MIC key class
Burkholderia cepacia = assay: MIC vs non-fermenting organisms: Burkholderia cepacia; format: cell-based; settings: Burkholderia cepacia, B. cepacia; MIC key class; read-out: MIC
Protocol: as §3
as §2, with “MIC.” for “MIC. Performance of the assay was monitored by the use of laboratory quality-control strains against tobramycin, that has a defined MIC spectrum, in accordance with NCCLS guidelines.”

P. aeruginosa LpxC = target: T1, P. aeruginosa LpxC (Pseudomonas aeruginosa, UniProt P47205); assay: P. aeruginosa LpxC Inhibition Assay; format: biochemical; settings: 2 nM P. aeruginosa LpxC, 90 min, room temperature; read-out: IC50 (nM), Enzyme inhibitory activity
T1 sequence (P47205 1-303): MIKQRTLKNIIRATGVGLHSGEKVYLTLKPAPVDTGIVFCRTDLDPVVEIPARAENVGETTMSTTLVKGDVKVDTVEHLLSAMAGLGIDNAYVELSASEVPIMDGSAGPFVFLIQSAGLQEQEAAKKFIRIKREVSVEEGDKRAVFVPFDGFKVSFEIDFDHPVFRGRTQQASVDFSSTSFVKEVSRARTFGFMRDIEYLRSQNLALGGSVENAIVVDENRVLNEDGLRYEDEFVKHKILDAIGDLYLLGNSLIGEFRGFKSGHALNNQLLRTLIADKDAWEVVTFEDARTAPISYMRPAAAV
Protocol: The assay followed the general method of Hyland et al (Journal of Bacteriology 1997 179, 2029-2037: Cloning, expression and purification of UDP-3-O-acyl-GlcNAc deacetylase from Pseudomonas aeruginosa: a metalloamidase of the lipid A biosynthesis pathway) and the radiolabeling procedure is according to Kline et al. supra. Briefly, samples were incubated with 2 nM P. aeruginosa LpxC and 150 nM [3H-Ac]-UDP-3-OR-3-hydroxydecanoyl)-GlcNAc in a total volume of 50 uL for 90 min at room temperature. Reactions were carried out in 96-well polypropylene plates in 50 mM sodium phosphate buffer, pH 7.5, containing 1 mg/mL BSA. Reactions were stopped by the addition of 180 uL of a 3% suspension of activated charcoal powder in 100 mM sodium acetate, pH 7.5. Supernatants were clarified by centrifugation. A portion of the clarified supernatant, containing the enzymatically released [3H]-acetate, was transferred to opaque white 96-well plates containing scintillation fluid. The radioactivity was measured in a Perkin-Elmer/Wallac Trilux Microbeta counter.

NC[C@H](NC(=O)c1ccc(C#Cc2ccccc2)cc1)C(=O)NO [Example 366, N-[(1S)-1-(aminomethyl)-2-(hydroxyamino)-2-oxoethyl]-4-(phenylethynyl)benzamide]
> 50 µg/mL: MIC [2] | MIC (Enterobacter aerogenes) | MIC (S. aureus 29213)
< 6.25 µg/mL: MIC (P. aeruginosa 27853) | MIC (Alcaligenes xylosoxidans) | MIC [1] | MIC (Serratia marcescens) | MIC [3] | MIC [4] | MIC [5] | MIC [7] | MIC [8] | MIC [9] | MIC ([10]; P. aer 12307) | MIC ([10]; P. aer 27853) | MIC ([10]; PAO1, P. aer. PAO1) | MIC [11] | MIC (Proteus mirabilis) | MIC (Enterobacter cloacae) | MIC (E. coli 25922) | MIC (Escherichia coli; E. coli 1619) | MIC (Escherichia coli; E. coli 2788) | MIC [12]
6.25 to 50 µg/mL: MIC (Klebsiella oxytoca) | MIC (Klebsiella pneumoniae) | MIC [6] | MIC ([10]; P. aer psa-6b) | MIC (Burkholderia cepacia)

O=C(NO)[C@H]1[C@H](O)CCN1C(=O)c1ccc(OC(F)(F)F)cc1 [Example 3, (2R,3R)-3-hydroxy-1-{[4-(trifluoromethoxy)phenyl]carbonyl}pyrrolidine-2-carbohydroxamic acid]
64 to 65 °C: melting point

NC[C@H](NC(=O)c1ccc(C#Cc2ccc(NC(=O)CNc3ccccc3)cc2)cc1)C(=O)NO [Example 572, N-{(1S)-1-(aminomethyl)-2-(hydroxyamino)-2-oxoethyl]-4-[(4-{[(phenylamino)acetyl]amino}phenyl)ethynyl]benzamide]
< 100 nM: IC50 (P. aeruginosa LpxC)
< 6.25 µg/mL: MIC (P. aeruginosa 27853) | MIC [7] | MIC (E. coli 25922)
> 50 µg/mL: MIC (S. aureus 29213)

C[C@@H](O)[C@H](NC(=O)c1ccc(C#Cc2ccc(NC(=O)CNc3cnccn3)cc2)cc1)C(=O)NO [Example 860, N-{(1S,2R)-2-hydroxy-1-[(hydroxyamino)carbonyl]propyl}-4-[(4-{[(pyrazin-2-ylamino)acetyl]amino}phenyl)ethynyl]benzamide]
> 50 µg/mL: MIC (S. aureus 29213)
< 6.25 µg/mL: MIC (P. aeruginosa 27853) | MIC [7] | MIC (E. coli 25922)
< 100 nM: IC50 (P. aeruginosa LpxC)
